Measurements: ChEMBL document CHEMBL1177663, “Synthesis and anti-HIV activity of 2-naphthyl substituted DAPY analogues as non-nucleoside reverse transcriptase inhibitors” (Bioorg Med Chem, 2010)

Key:
[1] = test system: Human immunodeficiency virus 1; assay: Antiviral activity against wild type HIV1 3B infected in human MT4 cells assessed as inhibition of virus-induced cytopathic effect after 4 days by MTT assay; format: functional, organism-based; conditions: Human immunodeficiency virus 1, 3B, MT4, 96 h
[2] = Cytotoxicity against human MT4 cells after 4 days by MTT assay; format: cell-based
[3] = Selectivity index, ratio of CC50 for human MT4 cells to EC50 for wild type HIV1 3B; format: toxicity, cell-based; conditions: read-out: Ratio CC50/EC50
[4] = test system: Human immunodeficiency virus 1; assay: Antiviral activity against HIV1 bearing reverse transcriptase K103N and Y181C double mutation infected in human MT4 cells assessed as inhibition of virus-induced cytopathic effect after 4 days by MTT assay; format: functional, organism-based; conditions: Human immunodeficiency virus 1, MT4, 96 h
[5] = biological target: Human immunodeficiency virus type 1 reverse transcriptase (Human immunodeficiency virus 1, UniProt Q72547); assay: Inhibition of HIV1 reverse transcriptase

Compound | EC50 [1] [nM] | CC50 at 96 h [2] [µM] | selectivity ratio [3] | EC50 [4] [nM] | IC50 [5] [nM]
Cc1cc(Oc2ccc3cc(C#N)ccc3c2Br)nc(Nc2ccc(C#N)cc2)n1 | 7 | > 274 | > 40100 | 220 | 
Cc1cc(Oc2ccc3cc(C#N)ccc3c2)nc(Nc2ccc(C#N)cc2)n1 | 3 | > 332 | > 96500 | 332000 | 
N#Cc1ccc(Nc2nccc(Oc3ccc4cc(C#N)ccc4c3)n2)cc1 | 3 | > 68.8 | 20500 | 6300 | 8720
N#Cc1ccc(Nc2nccc(Oc3ccc4cc(C#N)ccc4c3Br)n2)cc1 | 2 | 283 | 181000 | 240 | 3010
Cc1cnc(Nc2ccc(C#N)cc2)nc1Oc1ccc2cc(C#N)ccc2c1 | 7 | > 332 | > 44900 | 332000 | 
N#Cc1ccc(Nc2nccc(Oc3cc4ccc(C#N)cc4cc3Br)n2)cc1 | 1 | > 56.5 | 50400 | > 56500 | 1130
COc1c(Oc2ccnc(Nc3ccc(C#N)cc3)n2)ccc2cc(C#N)ccc12 | 2 | > 211 | ≥ 134000 | 380 | 2290
COc1cc2cc(C#N)ccc2cc1Oc1ccnc(Nc2ccc(C#N)cc2)n1 | 2 | > 318 | > 158000 | 319000 | 1320
COc1cc2cc(C#N)ccc2c(OC)c1Oc1ccnc(Nc2ccc(C#N)cc2)n1 | 5 | > 118 | ≥ 25000 | 160 | 94.5
N#Cc1ccc(Nc2nccc(Oc3ccc4cc(C#N)ccc4c3Cl)n2)cc1 | 6 | 269 | 48000 | 700 | 
COc1cc2cc(C#N)ccc2c(Cl)c1Oc1ccnc(Nc2ccc(C#N)cc2)n1 | 7 | > 191 | ≥ 25700 | 150 | 
Cc1cnc(Nc2ccc(C#N)cc2)nc1Oc1ccc2cc(C#N)ccc2c1Br | 12 | > 274 | > 23800 | 830 | 
CC(C)Nc1cccnc1N1CCN(C(=O)c2cc3cc(NS(C)(=O)=O)ccc3[nH]2)CC1 [DELAVIRDINE] |  | > 3.62 |  | > 3620 | 
O=C1Nc2ccc(Cl)cc2[C@@](C#CC2CC2)(C(F)(F)F)O1 [EFAVIRENZ] |  | > 63.4 |  | 560 | 
Cc1ccnc2c1NC(=O)c1cccnc1N2C1CC1 [NEVIRAPINE] | 75 | > 15 |  | > 15000 | 
